According to ChEMBL document CHEMBL1201862, “PubChem BioAssay data set” (2004):
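Five concentrations, 48 hours, 96-well plates. GI50 = concentration required for 50% inhibition of growth.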 Activity calls are given as the source filed them. Cut-off read from the data, not from the text of the source: active = GI50 up to about 1.1 µM and inactive = higher.

Tests used:
Test in all cases: growth of human tumour cells (NCI), 48 h
786-0 = system: 786-0
SNB-19 = system: SNB-19
NCI-H23 = system: NCI-H23
DU-145 = system: DU-145
A549 = system: A549
UACC-257 = system: UACC-257
NCI-H522 = system: NCI-H522
M14 = system: M14
SK-MEL-2 = system: SK-MEL-2
KM12 = system: KM12
RPMI-8226 = system: RPMI-8226
CCRF-CEM = system: CCRF-CEM
HOP-62 = system: HOP-62
OVCAR-4 = system: OVCAR-4
MDA-MB-435 = system: MDA-MB-435
SN12C = system: SN12C
LOX IMVI = system: LOX IMVI
MDA-MB-231 = system: MDA-MB-231
HCT-15 = system: HCT-15
NCI/ADR-RES = system: NCI/ADR-RES

Structure (SMILES) | GI50 (786-0) | GI50 (SNB-19) | GI50 (NCI-H23) | GI50 (DU-145) | GI50 (A549) | GI50 (UACC-257) | GI50 (NCI-H522) | GI50 (M14) | GI50 (SK-MEL-2) | GI50 (KM12) | GI50 (RPMI-8226) | GI50 (CCRF-CEM) | GI50 (HOP-62) | GI50 (OVCAR-4) | GI50 (MDA-MB-435) | GI50 (SN12C) | GI50 (LOX IMVI) | GI50 (MDA-MB-231) | GI50 (HCT-15) | GI50 (NCI/ADR-RES)
S=C(Nc1ccc(/N=N/c2ccccc2)cc1)SCc1ccccc1 | 17.8 µM (inactive) | 18.5 µM (inactive) | 16.4 µM (inactive) | 15.9 µM (inactive) | 16.9 µM (inactive) | 16.3 µM (inactive) | 16.9 µM (inactive) | 17.3 µM (inactive) | 21.4 µM (inactive) | 16.2 µM (inactive) | 5.04 µM (inactive) | 15.9 µM (inactive) | 20.2 µM (inactive) | 16.1 µM (inactive) | 16.2 µM (inactive) | 15.7 µM (inactive) | 18.7 µM (inactive) | 14.7 µM (inactive) | 15.1 µM | 17.8 µM (inactive)
CCN(CC)CCCNc1nncc2cc3c([nH]c4ccc(OC)cc43)c(C)c12 | 4.13 µM (inactive) | 5.97 µM (inactive) | 10.7 µM (inactive) | 4.03 µM (inactive) | 9.82 µM (inactive) | 17.6 µM (inactive) | 2.7 µM (inactive) | 12.9 µM (inactive) | 17.7 µM (inactive) | 4.2 µM (inactive) | 6.84 µM (inactive) | 2.93 µM (inactive) | 4.23 µM (inactive) | 3.27 µM (inactive) | 10.8 µM (inactive) | 6.12 µM (inactive) | 3.84 µM (inactive) | 7.41 µM (inactive) | 19.3 µM | > 100 µM (inactive)
NC(=S)NS(=O)(=O)c1ccc(F)cc1F | > 100 µM (inactive) | > 100 µM (inactive) | > 100 µM (inactive) | > 100 µM (inactive) | > 100 µM (inactive) | > 100 µM (inactive) | > 100 µM (inactive) | > 100 µM (inactive) | > 100 µM (inactive) | > 100 µM (inactive) | > 100 µM (inactive) | > 100 µM (inactive) | > 100 µM (inactive) | > 100 µM (inactive) | > 100 µM (inactive) | > 100 µM (inactive) | > 100 µM (inactive) | > 100 µM (inactive) | > 100 µM | > 100 µM (inactive)
CC(C)(C)OC(=O)Nc1nnc(S(N)(=O)=O)s1 | > 100 µM (inactive) | > 100 µM (inactive) | > 100 µM (inactive) | > 100 µM (inactive) | > 100 µM (inactive) | > 100 µM (inactive) | > 100 µM (inactive) | > 100 µM (inactive) | > 100 µM (inactive) | > 100 µM (inactive) | > 100 µM (inactive) | > 100 µM (inactive) | > 100 µM (inactive) | > 100 µM (inactive) | > 100 µM (inactive) | > 100 µM (inactive) | > 100 µM (inactive) | > 100 µM (inactive) | > 100 µM | > 100 µM (inactive)
CN1C(=O)CC2CCC(=O)N2c2cccnc21 (stereo not given) | > 100 µM (inactive) | > 100 µM (inactive) | > 100 µM (inactive) | > 100 µM (inactive) | > 100 µM (inactive) | > 100 µM (inactive) | > 100 µM (inactive) | > 100 µM (inactive) | > 100 µM (inactive) | > 100 µM (inactive) | > 100 µM (inactive) | > 100 µM (inactive) | > 100 µM (inactive) | > 100 µM (inactive) | > 100 µM (inactive) | > 100 µM (inactive) | > 100 µM (inactive) | > 100 µM (inactive) | > 100 µM | > 100 µM (inactive)
CC(C)/C(Cl)=N/OC(=O)Nc1ccc(Br)cc1 | 1.88 µM (inactive) | 20.8 µM (inactive) | 13.3 µM (inactive) | 13.7 µM (inactive) | 18.2 µM (inactive) | 15.2 µM (inactive) | 1.52 µM (inactive) | 2.78 µM (inactive) | 16.8 µM (inactive) | 12.9 µM (inactive) | 1.75 µM (inactive) | 1.36 µM (inactive) | 16.9 µM (inactive) | 12.7 µM (inactive) | 11 µM (inactive) | 2.16 µM (inactive) | 1.32 µM (inactive) | 16.1 µM (inactive) | 2.12 µM | 13.4 µM (inactive)
CC(=O)Oc1ccc(/C=C/C(=O)NCCOC(=O)/C=C/c2ccc(OC(C)=O)c(OC(C)=O)c2)cc1OC(C)=O | 19.5 µM (inactive) | 21.2 µM (inactive) | 26.4 µM (inactive) | 20.6 µM (inactive) | 57.5 µM (inactive) | 31.3 µM (inactive) | 8.97 µM (inactive) | 27.8 µM (inactive) | 46.5 µM (inactive) | 32.4 µM (inactive) | 26.2 µM (inactive) | 0.571 µM (active) | 21.9 µM (inactive) | 18.4 µM (inactive) | 31.7 µM (inactive) | 26.1 µM (inactive) | 13.9 µM (inactive) | 45.2 µM (inactive) | 34.8 µM | 70.1 µM (inactive)
CCCCCCCCCCCCCC(=O)O[C@H]1CC[C@H](NC(=O)[C@H](OC)[C@H](O)[C@@H](O)[C@H](O)/C=C/C(C)C)C(=O)NC1 [BENGAMIDE A] | 0.00512 µM (active) | 0.0115 µM (active) | 0.0113 µM (active) | 0.731 µM (active) | 0.00512 µM (active) | 0.0205 µM (active) | 0.011 µM (active) | 0.00601 µM (active) | 0.251 µM (active) | 0.00512 µM (active) | 0.00634 µM (active) | 0.00512 µM (active) | 0.235 µM (active) | 0.0255 µM (active) | 0.204 µM (active) | 0.00542 µM (active) | 0.00512 µM (active) | 0.137 µM (active) | 0.299 µM | 5.18 µM (inactive)
O=c1c2cc(S(=O)(=O)Nc3ccccc3Cl)ccc2ncn1NS(=O)(=O)c1ccc(Br)cc1 | > 37.5 µM (inactive) | > 37.5 µM (inactive) | > 37.5 µM (inactive) | > 37.5 µM (inactive) | > 37.5 µM (inactive) | > 37.5 µM (inactive) | > 37.5 µM (inactive) | > 37.5 µM (inactive) | > 37.5 µM (inactive) | > 37.5 µM (inactive) | > 37.5 µM (inactive) | > 37.5 µM (inactive) | > 37.5 µM (inactive) | > 37.5 µM (inactive) | > 37.5 µM (inactive) | > 37.5 µM (inactive) | > 37.5 µM (inactive) | > 37.5 µM (inactive) | > 37.5 µM | > 37.5 µM (inactive)
COC(=O)CCC1(O)C=CC(=O)C=C1 | 36.4 µM (inactive) | 37.8 µM (inactive) | 33.7 µM (inactive) | 36.8 µM (inactive) | > 100 µM (inactive) | 17.1 µM (inactive) | 14.1 µM (inactive) | 40.8 µM (inactive) | > 100 µM (inactive) | > 100 µM (inactive) | 31.7 µM (inactive) | 43.4 µM (inactive) | > 100 µM (inactive) | 65.8 µM (inactive) | > 100 µM (inactive) | 57.1 µM (inactive) | 30.3 µM (inactive) | > 100 µM (inactive) | 18.4 µM | 31.3 µM (inactive)
COc1ccc(/C=N/N=C(\N)NO)c(O)c1 | > 10 µM (inactive) | > 10 µM (inactive) | > 10 µM (inactive) | > 10 µM (inactive) | > 10 µM (inactive) | 6.52 µM (inactive) | > 10 µM (inactive) | 5.01 µM (inactive) | > 10 µM (inactive) | 4.57 µM (inactive) | > 10 µM (inactive) | > 10 µM (inactive) | > 10 µM (inactive) | > 10 µM (inactive) | 2.09 µM (inactive) | 8.53 µM (inactive) | 3.27 µM (inactive) | > 10 µM (inactive) | 6.24 µM | 3.92 µM (inactive)
Cc1nc(=O)[nH]c2s/c(=N/C3CCCCC3)n(C3CCCCC3)c(=O)c12 | > 100 µM (inactive) | > 100 µM (inactive) | > 100 µM (inactive) | > 100 µM (inactive) | > 100 µM (inactive) | > 100 µM (inactive) | > 100 µM (inactive) | > 100 µM (inactive) | > 100 µM (inactive) | > 100 µM (inactive) | > 100 µM (inactive) | > 100 µM (inactive) | > 100 µM (inactive) | > 100 µM (inactive) | > 100 µM (inactive) | > 100 µM (inactive) | > 100 µM (inactive) | > 100 µM (inactive) | > 100 µM | > 100 µM (inactive)
CCC(=O)C(C(C)/C=C/CCSc1ccccc1)C(O)CCCCCC(=O)OC (stereo not given) | > 100 µM (inactive) | > 100 µM (inactive) | 77.3 µM (inactive) | > 100 µM (inactive) | 91.6 µM (inactive) | 58.9 µM (inactive) | 89.3 µM (inactive) | > 100 µM (inactive) | > 100 µM (inactive) | 40.6 µM (inactive) | > 100 µM (inactive) | 38.6 µM (inactive) | > 100 µM (inactive) | > 100 µM (inactive) | > 100 µM (inactive) | > 100 µM (inactive) | 81.3 µM (inactive) | > 100 µM (inactive) | 88.7 µM | 99.5 µM (inactive)
C=CC(=O)N1C/C(=C\c2ccccc2)C(=O)/C(=C/c2ccccc2)C1 | 1.06 µM (active) | 2.54 µM (inactive) | 2.14 µM (inactive) | 5.13 µM (inactive) | 2.92 µM (inactive) | 1.92 µM (inactive) | 1.24 µM (inactive) | 1.71 µM (inactive) | 2.1 µM (inactive) | 0.989 µM (active) | 0.0462 µM (active) | 0.351 µM (active) | 2.33 µM (inactive) | 2.16 µM (inactive) | 0.53 µM (active) | 1.67 µM (inactive) | 0.254 µM (active) | 2 µM (inactive) | 1.18 µM | 1.93 µM (inactive)
